According to patent US20220401385A1, “Combination Therapy Based on PD-1 Signaling Inhibitors” (Kyoto University, priority 2019, published 2022):
“Also recorded” adds a separate entry of the source.

What was measured:
CD44 high CD8+ T cells = assay: Seahorse OCR, ATP production and SRC in vitro, CD44 high cells; type: cell-based, mice; conditions: SPD 0.2 μM
Method: FIG. 4 CD8^+ T cells were isolated from the spleen of mice without tumor inoculation, and further isolated into CD44^+ (CD44 high) and CD44^− (CD44 low) cell populations. a) CD44 low cells were simulated with CD3/CD28 antibody beads and SPD (0.2 μM). After 30 minutes, 1 hour, 2 hours and 72 hours, OCR was measured with a Seahorse analyzer. b) At the same time, total ATP production and glycolytic pathway-derived or mitochondrial activity-derived ATP production were calculated at 30-minute, 1-hour and 2-hour. c) CD44 low cells (2×10^5 cells) were stimulated with CD3/CD28 antibody beads and SPD (0.2 μM). After 24 hours, cell proliferation was examined by means of 3H uptake. d) Spare respiratory capacity (SRC) was calculated from the OCR measurement after 72 hours in a), and results with and without SPD were compared. e) CD44 low cells were stimulated with CD3/CD28 antibody beads and SPD (0.2 μM). After 24 hours, frequencies between apoptotic and viable cells were calculated by PI and Annexin staining. f-j) CD44 high cells were analyzed under the same conditions and by the same methods as described in a-e) above. As regards statistical analysis, t-test was used for comparison of two groups, and ANOVA was used for comparison of three or more groups. * p<0.05, ** p<0.01, *** p<0.001, **** p<0.0001.
Oxygen consumption rates were measured using an XF96 Extracellular Flux Analyzer (Seahorse Bioscience). CD8^+ T cells (4×10^5) per well were seeded in a determined XF96 plate. The four chemical modulators of mitochondrial oxidative phosphorylation, which came with an XF Cell Mito Stress Test Kit (Seahorse Bioscience), were added to the module sequentially. In brief, basal OCR measurement was performed […] sequential addition of oligomycin, FCCP, and rotenone/antimycin A. SRC and ATP production rates were calculated by the following formulas:
SRC (pmo; 02/min)=OCRmaximal−OCRbasal
mitoATP (pmol ATP/min)=(OCRbasal−OCRoligo)×5.5.

CD44 low CD8+ T cells = assay: Observation of mitochondria under electron microscope, CD44 low cells; type: cell-based, mice; conditions: SPD 0.2 μM, 1 hour
Method: FIG. 5 CD8^+ T cells were isolated from the spleen of mice without tumor inoculation, and further isolated into CD44^+ (CD44 high) and CD44^− (CD44 low) cell populations. a) CD44 low cells were simulated with CD3/CD28 antibody beads and SPD (0.2 μM). […] Protein expression levels after 1 hour and 2 hours were confirmed by western blotting with the respective indicated antibodies. As regards statistical analysis, t-test was used for comparison of two groups. * p<0.05, ** p<0.01, *** p<0.001, **** p<0.0001.
CD8^+ T cells (2×10^5) were stimulated with 0.2 μM spermidine for 1 hour. Then, cells were harvested, embedded in Ipgell (GenoStaff) and fixed with 4% paraformaldehyde and 2% glutaraldehyde. Images were taken with a transmission electron microscope (TEM). Mitochondrial size was determined with ImageJ software. As regards mitochondrial number, average numbers in single cell were determined with Prism software. Blind testing was used for observation and analysis of mitochondria.

MC38 cells = assay: MC38 therapy model in aged mice, tumor growth and survival; type: in vivo; conditions: 56-week old mice; combination PD-L1 antibody (2 mg/kg) + SPD (2 mg/kg)
Method: FIG. 7 MC38 cells (5×10^5) were intradermally inoculated into 56-week old mice, which were treated along with the treatment schedule described in FIG. 1. PD-L1 antibody (2 mg/kg) and SPD (2 mg/kg) were used. a) Tumor growth curve and survival curve are shown. b) The frequency of CD8^+ T cells among lymphocytes infiltrating into tumor (in CD45^+ gate) and the absolute number of CD8^+ T cells per mg tumor 13 days after tumor inoculation are shown. c) CD8^+ T cells were isolated from spleen cells on the same schedule as b) and cultured for 20 hours under the stimulation with CD3/CD28. Cell proliferation was examined by means of ^3H uptake. d) CD8^+ T cells were isolated from draining lymph nodes on the same schedule as b) and glycolytic pathway-derived or mitochondrial metabolism-derived ATP production was calculated by Seahorse. e) Spare respiratory capacity (SRC) was also calculated in the experiment (d).
MC38 cells (5×10^5) were intradermally injected on the right flank. […] Tumors were measured on every alternate day, and tumor volumes were calculated using the formula for typical ellipsoid, π×(length×breadth×height/6).
It is known from mouse model experiments that the effect of PD-1 inhibitory antibody therapy decreases in aged mice due to their decreased immunity. […] Spare respiratory capacity (SRC) was also calculated. […]

With NCCCCNCCCN [SPD, spermidine] the “ATP production via glycolysis (glyco ATP)” value (CD44 high CD8+ T cells; 1 to 2 hours after stimulation) was “not enhanced”, the “ATP production via mitochondria (mito ATP)” value (CD44 high CD8+ T cells; 1 to 2 hours after stimulation) was “not enhanced” and the ATP production (CD44 high CD8+ T cells; 30 minutes after stimulation) was “tendency to be enhanced”. The “mitochondrial oxygen consumption (OCR)” value (CD44 high CD8+ T cells; 30 minutes after stimulation) was “increased”, the “mitochondrial oxygen consumption (OCR)” value (CD44 high CD8+ T cells; 1 hour and 2 hours after stimulation) was “decreased” and the “spare respiratory capacity (SRC)” value (CD44 high CD8+ T cells; 72 hours) was “enhanced; also recorded: significantly high”. The “mitochondrial oxygen consumption (OCR)” value (CD44 high CD8+ T cells; 72 hours after stimulation) was “increased again”, the mitochondrial size (CD44 low CD8+ T cells) was “no change” and the structure of cristae (CD44 low CD8+ T cells) was “denser structures of cristae”. For the same compound, the tumor shrinking effect (MC38 cells) was “enhanced tumor shrinking effect”.
